This note sets out measurements from patent US20250179059A1 (The Regents of the University of California, priority 2021, published 2025).

Where two headings read alike, the source gives them in different places.

The target of assay [1] is T1, human BRD4 bromodomain II (Homo sapiens, UniProt O60885).
T1 construct: human BRD4 bromodomain II [based on Genbank NM_058243, residues 349-460]; host or cells: E. coli
Kind of assay: Bromodomain binding assay (AlphaScreen), BRD4 BDII. The method in brief: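 First, His6-tagged BRD4 bromodomain (BDI residues 44-170 or BDII residues 349-460) is incubated with compound for 30 min at room temperature. Next the biotinylated H4 peptide is added for 30 min, then donor and acceptor beads, with 60 min in the dark before AlphaScreen reading and IC50 fitting.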
(In Alpha technology, singlet oxygen from a donor bead excites a nearby acceptor bead.)

In assay [2] the test system is human SKM-1 acute myeloid leukemia cells. Kind of assay: SKM-1 antiproliferation cell-based assay (ATPlite). The settings on record: Homo sapiens. The method in brief: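 Log-phase cells in RPMI 1640/15% FBS were seeded at 34722 cells/mL and exposed for 4 days to nine-concentration DMSO serial dilutions in triplicate. Viability was read as ATP luminescence (ATPlite 1step), and IC50 values came from variable-slope non-linear regression.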
(In general: ATP-based viability assays read luminescence as a measure of living cells.)

[3] abbreviates: AlphaScreen assay, Table C2, read-out: BRD4 BDII IC50.
Setting [4] is: SKM-1, 96 h, SKM-1 antiproliferation assay, 4 days, Table C2.
[5] abbreviates: BRD4 BDII AlphaScreen assay, read-out: BRD4 BD2 IC50.
Setting [6] is: SKM-1, SKM-1 antiproliferation assay.

On to `Cn1ccn(-c2ccc(-c3cc(F)cc(-c4ccnc(N5CCN(C6CCOC6)CC5)c4)c3O)cc2Cl)c1=O` (centres unmarked) [Example 618, 1-(3-chloro-5′-fluoro-2′-hydroxy-3′-(2-(4-(tetrahydrofuran-3-yl)piperazin-1-yl)pyridin-4-yl)-[1,1′-biphenyl]-4-yl)-3-methyl-1H-imidazol-2(3H)-one], for which the concentration for half-maximal inhibition (IC50) – broadly, the point on the concentration scale where inhibition reaches its midpoint – in assay [1] (setting [3]) lay in the range of 0.01 to 1 nM. Further, the GI50 (usually the concentration giving 50% growth inhibition) in assay [2] (setting [4]) lay within 30 to 300 nM.

Regarding `CC(=O)Nc1ccc(-c2cc(F)cc(-c3cccc(N4CCN(C(C)(C)C)CC4)c3)c2O)nc1` [Example 912, N-(6-(3′-(4-(tert-butyl)piperazin-1-yl)-5-fluoro-2-hydroxy-[1,1′-biphenyl]-3-yl)pyridin-3-yl)acetamide], in assay [1] (setting [5]), the IC50 is over 100 nM. For the same molecule, the GI50 in assay [2] (setting [6]) was 300 to 3000 nM.

With `CC(=O)Nc1ccc(-c2cccc(-c3ccc(C#N)c(N4CCNCC4)c3)c2O)cc1F` [Example 236, N-(4″-cyano-3-fluoro-2′-hydroxy-3″-(piperazin-1-yl)-[1,1′:3′,1″-terphenyl]-4-yl)acetamide], in assay [1] (setting [3]), the IC50 fell in the range of 1 to 10 nM. The molecule also came in with a GI50 in assay [2] (setting [4]) of 30 to 300 nM.

On to `CC(=O)Nc1ccc(-c2cc(F)cc(-c3ccnc(N4CC5(CNC5)C4)c3)c2O)cc1F` [Example 321, N-(3′-(2-(2,6-diazaspiro[3.3]heptan-2-yl)pyridin-4-yl)-3,5′-difluoro-2′-hydroxy-[1,1′-biphenyl]-4-yl)acetamide], for which the IC50 in assay [1] (setting [3]) was 10 to 100 nM. For the same molecule, in assay [2] (setting [4]), the 50% growth inhibitory concentration (GI50) fell in the range of 30 to 300 nM.

For the molecule `Cn1ccn(-c2ccc(-c3cc(F)cc(-c4ccnc(N5CCC(C)(NS(C)(=O)=O)C5)c4)c3O)cc2Cl)c1=O` (centres unmarked) [Example 792, N-(1-(4-(3′-chloro-5-fluoro-2-hydroxy-4′-(3-methyl-2-oxo-2,3-dihydro-1H-imidazol-1-yl)-[1,1′-biphenyl]-3-yl)pyridin-2-yl)-3-methylpyrrolidin-3-yl)methanesulfonamide], in assay [1] (setting [3]), the IC50 is over 100 nM. In addition, the 50% growth inhibitory concentration (GI50) in assay [2] (setting [4]) was in the range of 300 to 3000 nM.

As to `Cn1ccn(-c2c(O)cc(-c3cc(F)cc(-c4cccc(N5CCN(C(C)(C)C)CC5)c4)c3O)cc2Cl)c1=O` [Example 952, 1-(3″-(4-(tert-butyl)piperazin-1-yl)-3-chloro-5′-fluoro-2′,5-dihydroxy-[1,1′:3′,1″-terphenyl]-4-yl)-3-methyl-1H-imidazol-2(3H)-one], the IC50 in assay [1] (setting [5]) is over 100 nM. Further, the GI50 in assay [2] (setting [6]) was in the range of 300 to 3000 nM.

`CN[C@H]1CCCN(c2cc(-c3cc(F)cc(-c4ccc(N5CCN(C)C5=O)c(Cl)c4)c3O)ccn2)C1` [Example 450]: the IC50 in assay [1] (setting [3]) was in the range of 1 to 10 nM. Besides, the GI50 in assay [2] (setting [4]) was in the range of 30 to 300 nM.

`CCc1ncc(-c2cc(F)cc(-c3ccc(N4CCN(C)C4=O)c(Cl)c3)c2O)cc1N1CCNCC1` [Example 382, 1-(3-chloro-3′-(6-ethyl-5-(piperazin-1-yl)pyridin-3-yl)-5′-fluoro-2′-hydroxy-[1,1′-biphenyl]-4-yl)-3-methylimidazolidin-2-one]: the half-inhibitory concentration (IC50) in assay [1] (setting [3]) lay within 1 to 10 nM. In assay [2] (setting [4]), this molecule gave a GI50 of 30 to 300 nM.

Regarding `Cn1ccn(-c2ccc(-c3cc(F)cc(-c4ccnc(N5CCN(CC(C)(C)C#N)CC5)c4)c3O)cc2Cl)c1=O` [Example 652, 3-(4-(4-(3′-chloro-5-fluoro-2-hydroxy-4′-(3-methyl-2-oxo-2,3-dihydro-1H-imidazol-1-yl)-[1,1′-biphenyl]-3-yl)pyridin-2-yl)piperazin-1-yl)-2,2-dimethylpropanenitrile], the IC50 in assay [1] (setting [3]) was 0.01 to 1 nM. In assay [2] (setting [4]), this molecule had a 50% growth inhibitory concentration (GI50) of 30 to 300 nM.

For `Cc1cc(-c2ccc(-n3ccn(C)c3=O)c(Cl)c2)c(O)c(-c2cc(N3CCN[C@H](C)C3)c3cc[nH]c3c2)c1` [Example 567], the 50% inhibitory concentration (IC50) in assay [1] (setting [3]) fell in the range of 1 to 10 nM. Further, in assay [2] (setting [4]), the GI50 lay in the range of 0.3 to 30 nM.

Regarding `Cn1ccn(-c2ccc(-c3cc(F)cc(-c4ccnc(N5CCN[C@H](CC#N)C5)c4)c3O)cc2Cl)c1=O` [Example 698, (R)-2-(4-(4-(3′-chloro-5-fluoro-2-hydroxy-4′-(3-methyl-2-oxo-2,3-dihydro-1H-imidazol-1-yl)-[1,1′-biphenyl]-3-yl)pyridin-2-yl)piperazin-2-yl)acetonitrile], the IC50 in assay [1] (setting [3]) lay within 0.01 to 1 nM. The molecule also yielded a GI50 in assay [2] (setting [4]) of 0.3 to 30 nM.

As for `COCCCOc1cc(-c2cc(F)cc(-c3ccc(-n4ccn(C)c4=O)c(Cl)c3)c2O)cc(N2CCN[C@H](C)C2)n1` [Example 715, (R)-1-(3-chloro-5′-fluoro-2′-hydroxy-3′-(2-(3-methoxypropoxy)-6-(3-methylpiperazin-1-yl)pyridin-4-yl)-[1,1′-biphenyl]-4-yl)-3-methyl-1H-imidazol-2(3H)-one], the IC50 in assay [1] (setting [3]) is 0.01 to 1 nM. Further, the GI50 in assay [2] (setting [4]) was in the range of 0.3 to 30 nM.

In the case of `O=C1CCCN1c1ccc(-c2cccc(-c3cncc(N4CCNCC4)c3)c2O)cc1Cl` [Example 262, 1-(3-chloro-2′-hydroxy-3′-(5-(piperazin-l-yl)pyridin-3-yl)-[1,1′-biphenyl]-4-yl)pyrrolidin-2-one], in assay [1] (setting [3]), the concentration for half-maximal inhibition (IC50) lay in the range of 1 to 10 nM. Moreover, the GI50 in assay [2] (setting [4]) lay in the range of 30 to 300 nM.

Turning to `CC(=O)Nc1ccc(-c2cccc(-c3cccc(N4CCNC(=O)C4)c3)c2O)cc1F` [Example 254, N-(3-fluoro-2′-hydroxy-3″-(3-oxopiperazin-1-yl)-[1,1′:3′,1″-terphenyl]-4-yl)acetamide], the IC50 in assay [1] (setting [3]) is 10 to 100 nM. In addition, the GI50 in assay [2] (setting [4]) was at least 3000 nM.

As for `Cn1ccn(-c2ccc(-c3cc(F)cc(-c4ccnc(N5CC[C@H](C(N)=O)C5)c4)c3O)cc2Cl)c1=O` [Example 760], the IC50 in assay [1] (setting [3]) was 0.01 to 1 nM. The concentration for 50% growth inhibition (GI50) in assay [2] (setting [4]) was 30 to 300 nM.

`CN(C)C1(c2cccc(-c3cc(F)cc(-c4ccc(-n5ccn(C)c5=O)c(Cl)c4)c3O)c2)CC1` [Example 788, 1-(3-chloro-3″-(1-(dimethylamino)cyclopropyl)-5′-fluoro-2′-hydroxy-[1,1′:3′,1″-terphenyl]-4-yl)-3-methyl-1H-imidazol-2(3H)-one]: the IC50 in assay [1] (setting [3]) lay in the range of 10 to 100 nM. Also, in assay [2] (setting [4]), the GI50 lay in the range of 300 to 3000 nM.

For `CN1CCC2CN(c3cc(-c4cc(F)cc(-c5ccc(-n6ccn(C)c6=O)c(Cl)c5)c4O)ccn3)CC21` (centres unmarked) [Example 658, 1-(3-chloro-5′-fluoro-2′-hydroxy-3′-(2-(1-methylhexahydropyrrolo[3,4-b]pyrrol-5(1H)-yl)pyridin-4-yl)-[1,1′-biphenyl]-4-yl)-3-methyl-1H-imidazol-2(3H)-one], in assay [1] (setting [3]), the 50% inhibitory concentration (IC50) was 0.01 to 1 nM. This molecule also had a GI50 in assay [2] (setting [4]) of 0.3 to 30 nM.

For `COc1ncc(-c2nccc(-c3ccc(-n4ccn(C)c4=O)c(Cl)c3)c2O)cc1N1CCN(C(C)(C)C)CC1` [Example 1005, 1-(4-(5′-(4-(tert-butyl)piperazin-1-yl)-3-hydroxy-6′-methoxy-[2,3′-bipyridin]-4-yl)-2-chlorophenyl)-3-methyl-1H-imidazol-2(3H)-one], the IC50 in assay [1] (setting [5]) fell in the range of 1 to 10 nM. This molecule registered a GI50 in assay [2] (setting [6]) of 0.3 to 30 nM.

Consider `Cn1ccn(-c2ccc(-c3cc(F)cc(-c4ccnc(N5CCN6C(=O)OC[C@@H]6C5)c4)c3O)cc2Cl)c1=O` [Example 560, (S)-7-(4-(3′-chloro-5-fluoro-2-hydroxy-4′-(3-methyl-2-oxo-2,3-dihydro-1H-imidazol-1-yl)-[1,1′-biphenyl]-3-yl)pyridin-2-yl)tetrahydro-1H-oxazolo[3,4-a]pyrazin-3(5H)-one], for which the IC50 in assay [1] (setting [3]) is 1 to 10 nM. The molecule also had a GI50 in assay [2] (setting [4]) of 30 to 300 nM.

For the molecule `CC(=O)Nc1ccc(-c2cc(F)cc(-c3ccc(C#N)c(N4CCNCC4)c3)c2O)cc1F` [Example 235, N-(4″-cyano-3,5′-difluoro-2′-hydroxy-3″-(piperazin-1-yl)-[1,1′:3′,1″-terphenyl]-4-yl)acetamide], the IC50 in assay [1] (setting [3]) was 1 to 10 nM. In addition, the GI50 in assay [2] (setting [4]) was 30 to 300 nM.

Consider `Cn1ccn(-c2ccc(-c3cc(F)cc(-c4ccnc(N5CC6CCC6(N)C5)c4)c3O)cc2Cl)c1=O` (centres unmarked) [Example 806, 1-(3′-(2-(1-amino-3-azabicyclo[3.2.0]heptan-3-yl)pyridin-4-yl)-3-chloro-5′-fluoro-2′-hydroxy-[1,1′-biphenyl]-4-yl)-3-methyl-1H-imidazol-2(3H)-one], for which, in assay [1] (setting [3]), the IC50 lay within 1 to 10 nM. This molecule also displayed a GI50 in assay [2] (setting [4]) of 0.3 to 30 nM.

As to `CN1CCN(c2ccc(-c3cccc(-c4cncc(N5CC6(CNC6)C5)c4)c3O)cc2F)C1=O` [Example 334, 1-(3′-(5-(2,6-diazaspiro[3.3]heptan-2-yl)pyridin-3-yl)-3-fluoro-2′-hydroxy-[1,1′-biphenyl]-4-yl)-3-methylimidazolidin-2-one], the IC50 in assay [1] (setting [3]) fell in the range of 10 to 100 nM. In assay [2] (setting [4]), this molecule had a GI50 of 300 to 3000 nM.

Turning to `CN1CCN(c2ccc(-c3cccc(-c4cc(C5CC5)nc(N5CCNCC5)c4)c3O)cc2Cl)C1=O` [Example 368, 1-(3-chloro-3′-(2-cyclopropyl-6-(piperazin-1-yl)pyridin-4-yl)-2′-hydroxy-[1,1′-biphenyl]-4-yl)-3-methylimidazolidin-2-one], the IC50 in assay [1] (setting [3]) lay in the range of 1 to 10 nM. The GI50 in assay [2] (setting [4]) fell in the range of 30 to 300 nM.

With `CN[C@H]1CCCN(c2cncc(-c3cc(F)cc(-c4ccc(-n5ccn(C)c5=O)c(Cl)c4)c3O)c2)C1` [Example 478, (S)-1-(3-chloro-5′-fluoro-2′-hydroxy-3′-(5-(3-(methylamino)piperidin-1-yl)pyridin-3-yl)-[1,1′-biphenyl]-4-yl)-3-methyl-1H-imidazol-2(3H)-one], the IC50 in assay [1] (setting [3]) lay in the range of 0.01 to 1 nM. Moreover, in assay [2] (setting [4]), the GI50 was 0.3 to 30 nM.

For the molecule `C[C@H]1CN(c2cc(-c3cc(F)cc(-c4ccc(-n5ccn(C)c5=O)c(Cl)c4)c3O)cc3[nH]ncc23)CCN1` [Example 595, (S)-1-(3-chloro-5′-fluoro-2′-hydroxy-3′-(4-(3-methylpiperazin-1-yl)-1H-indazol-6-yl)-[1,1′-biphenyl]-4-yl)-3-methyl-1H-imidazol-2(3H)-one], the half-inhibitory concentration (IC50) in assay [1] (setting [3]) was 1 to 10 nM. The molecule also displayed a GI50 in assay [2] (setting [4]) of 0.3 to 30 nM.
